Assay results reported in PubChem BioAssay (NCI).
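Test compounds were applied to cells in 96-well plates for 48 hours at 5 doses. Abbreviation: GI50, concentration required for 50% inhibition of growth. TGI denotes the concentration required for complete inhibition of growth.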

Legend:
Assay in all cases: NCI anticancer screen, dose series, 48 h
[1] = test system: 786-0 renal
[2] = test system: A498 renal
[3] = test system: A549 NSCLC
[4] = test system: ACHN renal
[5] = test system: BT-549 breast
[6] = test system: CAKI-1 renal
[7] = test system: CCRF-CEM leukemia
[8] = test system: COLO 205 colon
[9] = test system: DU-145 prostate
[10] = test system: EKVX NSCLC
[11] = test system: HCC-2998 colon
[12] = test system: HCT-116 colon
[13] = test system: HCT-15 colon
[14] = test system: HL-60(TB) leukemia
[15] = test system: HOP-62 NSCLC
[16] = test system: HOP-92 NSCLC
[17] = test system: HS 578T breast
[18] = test system: HT29 colon
[19] = test system: IGROV1 ovarian
[20] = test system: K-562 leukemia
[21] = test system: KM12 colon
[22] = test system: LOX IMVI melanoma
[23] = test system: M14 melanoma
[24] = test system: MALME-3M melanoma
[25] = test system: MCF7 breast
[26] = test system: MDA-MB-231 breast
[27] = test system: MDA-MB-435
[28] = test system: MOLT-4 leukemia
[29] = test system: NCI-H226 lung
[30] = test system: NCI-H460 lung
[31] = test system: NCI-H522 lung
[32] = test system: NCI/ADR-RES ovarian
[33] = test system: OVCAR-3 ovarian
[34] = test system: OVCAR-4 ovarian
[35] = test system: OVCAR-5 ovarian
[36] = test system: OVCAR-8 ovarian
[37] = test system: PC-3 prostate
[38] = test system: RPMI-8226 leukemia
[39] = test system: RXF 393 renal
[40] = test system: SF-268 CNS
[41] = test system: SF-295 CNS
[42] = test system: SF-539 CNS
[43] = test system: SK-MEL-2 melanoma
[44] = test system: SK-MEL-28 melanoma
[45] = test system: SK-MEL-5 melanoma
[46] = test system: SK-OV-3 ovarian
[47] = test system: SN12C renal
[48] = test system: SNB-19 CNS
[49] = test system: SNB-75 CNS
[50] = test system: SR leukemia
[51] = test system: SW-620 colon
[52] = test system: T-47D breast
[53] = test system: TK-10 renal
[54] = test system: U251 CNS
[55] = test system: UACC-257 melanoma
[56] = test system: UACC-62 melanoma
[57] = test system: UO-31 renal

## Cc1ccc2c(n1)C(=O)C(Cl)=C(Nc1ccc(C(=O)OC(C)(C)C)cc1)C2=O
[1]
  GI50: > 92.5 µM
  TGI: > 92.5 µM
[2]
  GI50: > 92.5 µM
  TGI: > 92.5 µM
[3]
  GI50: > 92.5 µM
  TGI: > 92.5 µM
[4]
  GI50: 15.8 µM
  TGI: 28.6 µM
[5]
  GI50: > 92.5 µM
  TGI: > 92.5 µM
[6]
  GI50: 14.4 µM
  TGI: 30.6 µM
[7]
  GI50: 5.9 µM
  TGI: > 92.5 µM
[8]
  GI50: 21.9 µM
  TGI: 63 µM
[9]
  GI50: > 92.5 µM
  TGI: > 92.5 µM
[10]
  GI50: > 92.5 µM
  TGI: > 92.5 µM
[11]
  GI50: > 92.5 µM
  TGI: > 92.5 µM
[12]
  GI50: 15.5 µM
  TGI: 32 µM
[13]
  GI50: 15.4 µM
  TGI: 33.9 µM
[14]
  GI50: 7.65 µM
  TGI: 71.1 µM
[15]
  GI50: > 92.5 µM
  TGI: > 92.5 µM
[16]
  GI50: 16.4 µM
  TGI: 36.7 µM
[17]
  GI50: > 92.5 µM
  TGI: > 92.5 µM
[18]
  GI50: > 92.5 µM
  TGI: > 92.5 µM
[19]
  GI50: 71.4 µM
  TGI: > 92.5 µM
[20]
  GI50: 3.77 µM
  TGI: > 92.5 µM
[21]
  GI50: > 92.5 µM
  TGI: > 92.5 µM
[22]
  GI50: 16.9 µM
  TGI: 33 µM
[23]
  GI50: 29.2 µM
  TGI: > 92.5 µM
[24]
  GI50: 15.7 µM
  TGI: 30.5 µM
[25]
  GI50: 16 µM
  TGI: 35.3 µM
[26]
  GI50: 30.2 µM
  TGI: > 92.5 µM
[27]
  GI50: 90.3 µM
  TGI: > 92.5 µM
[28]
  GI50: 4.65 µM
  TGI: 72.8 µM
[29]
  GI50: > 92.5 µM
  TGI: > 92.5 µM
[30]
  GI50: > 92.5 µM
  TGI: > 92.5 µM
[31]
  GI50: 16.3 µM
  TGI: 35.7 µM
[32]
  GI50: > 92.5 µM
  TGI: > 92.5 µM
[33]
  GI50: 13.8 µM
  TGI: 30.4 µM
[34]
  GI50: 12.7 µM
  TGI: 29.2 µM
[35]
  GI50: > 92.5 µM
  TGI: > 92.5 µM
[36]
  GI50: > 92.5 µM
  TGI: > 92.5 µM
[37]
  GI50: > 92.5 µM
  TGI: > 92.5 µM
[38]
  GI50: 23.3 µM
  TGI: > 92.5 µM
[39]
  GI50: 12.8 µM
  TGI: 25.5 µM
[40]
  GI50: > 92.5 µM
  TGI: > 92.5 µM
[41]
  GI50: > 92.5 µM
  TGI: > 92.5 µM
[42]
  GI50: > 92.5 µM
  TGI: > 92.5 µM
[43]
  GI50: > 92.5 µM
  TGI: > 92.5 µM
[44]
  GI50: 18.2 µM
  TGI: 38.5 µM
[45]
  GI50: > 92.5 µM
  TGI: > 92.5 µM
[46]
  GI50: > 92.5 µM
  TGI: > 92.5 µM
[47]
  GI50: > 92.5 µM
  TGI: > 92.5 µM
[48]
  GI50: > 92.5 µM
  TGI: > 92.5 µM
[49]
  GI50: > 92.5 µM
  TGI: > 92.5 µM
[50]
  GI50: 3.44 µM
  TGI: 55.7 µM
[51]
  GI50: 18.5 µM
  TGI: 44 µM
[52]
  GI50: 16.6 µM
  TGI: 55.4 µM
[53]
  GI50: > 92.5 µM
  TGI: > 92.5 µM
[54]
  GI50: > 92.5 µM
  TGI: > 92.5 µM
[55]
  GI50: 31.7 µM
  TGI: > 92.5 µM
[56]
  GI50: > 92.5 µM
  TGI: > 92.5 µM
[57]
  GI50: 18.9 µM
  TGI: 53.1 µM

## COc1ccc2[nH]cc(-c3cc(N)n4nc(-c5c[nH]c6ccc(OC)cc56)cc4n3)c2c1
[2]
  GI50: 1.92 µM
  TGI: 3.86 µM
[4]
  GI50: 1.85 µM
  TGI: 3.45 µM
[5]
  GI50: 5.54 µM
  TGI: 21.2 µM
[7]
  GI50: 2.81 µM
  TGI: 8.78 µM
[8]
  GI50: 1.65 µM
  TGI: 3.13 µM
[9]
  GI50: 1.93 µM
  TGI: 3.58 µM
[10]
  GI50: 1.73 µM
  TGI: 3.58 µM
[11]
  GI50: 1.97 µM
  TGI: 3.59 µM
[13]
  GI50: 1.99 µM
  TGI: 4.98 µM
[14]
  GI50: 1.92 µM
  TGI: 4.73 µM
[18]
  GI50: 1.79 µM
  TGI: 3.34 µM
[19]
  GI50: 2.26 µM
  TGI: 5.73 µM
[20]
  GI50: 2.4 µM
  TGI: > 100 µM
[21]
  GI50: 1.88 µM
  TGI: 3.59 µM
[22]
  GI50: 2.23 µM
  TGI: 3.85 µM
[23]
  GI50: 1.81 µM
  TGI: 3.38 µM
[27]
  GI50: 1.74 µM
  TGI: 3.26 µM
[31]
  GI50: 1.72 µM
  TGI: 3.32 µM
[32]
  GI50: 3.09 µM
  TGI: 14.3 µM
[33]
  GI50: 1.95 µM
  TGI: 3.83 µM
[34]
  GI50: 2.28 µM
  TGI: 5.32 µM
[35]
  GI50: 2.44 µM
  TGI: 6.31 µM
[36]
  GI50: 1.84 µM
  TGI: 3.72 µM
[39]
  GI50: 1.67 µM
  TGI: 3.23 µM
[40]
  GI50: 2.13 µM
  TGI: 4.77 µM
[41]
  GI50: 1.87 µM
  TGI: 3.49 µM
[43]
  GI50: 1.79 µM
  TGI: 3.5 µM
[44]
  GI50: 1.82 µM
  TGI: 3.31 µM
[45]
  GI50: 1.7 µM
  TGI: 3.08 µM
[47]
  GI50: 1.98 µM
  TGI: 3.91 µM
[48]
  GI50: 3.25 µM
  TGI: 14.2 µM
[51]
  GI50: 1.68 µM
  TGI: 3.26 µM
[52]
  GI50: 1.91 µM
  TGI: 4.13 µM
[53]
  GI50: 2.27 µM
  TGI: 5.23 µM
[55]
  GI50: 1.73 µM
  TGI: 3.17 µM
[57]
  GI50: 1.65 µM
  TGI: 3.55 µM
